The text below walks through data of the supplement of paper PMC12137928.

Where a name gives a salt, the structure may show the parent alone. Where only a bound is given, the exact number is not on record here.

In this experiment the test system is HCT116. As to conditions: 72 h. A digest of the protocol:
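Luminescence was read with CellTiter-Glo in HCT116 cells seeded at 250 per well in 1536-well plates. Signals were scaled between vehicle at 0% and positive control at -100%, then pattern-corrected. IC50 and maximal efficacy were obtained by fitting a four-parameter Hill equation.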

The compound `c1ccc([C@H]2CN3CCSC3=N2)cc1` [Levamisole hydrochloride] displayed an IC50 cell viability (ICRF193 0 nM) above 45.8 µM and an IC50 cell viability (ICRF193 200 nM) above 45.8 µM.

`N[C@@H](C(=O)N[C@@H]1C(=O)N2C(C(=O)O)=C(CSc3c[nH]nn3)CS[C@H]12)c1ccc(O)cc1` [Cefatrizine]: the IC50 cell viability (ICRF193 0 nM) is above 45.8 µM and the IC50 cell viability (ICRF193 200 nM) was above 45.8 µM.

With `CCn1cc(C(=O)O)c(=O)c2cnc(N3CCCC3)nc21` [Piromidic acid], the IC50 cell viability by setting is: (ICRF193 0 nM) above 45.8 µM; (ICRF193 200 nM) above 45.8 µM.

Compound `N#C[C@@H]1CCCN1C(=O)CNC12CC3CC(CC(O)(C3)C1)C2` [Vildagliptin] gave an IC50 cell viability (ICRF193 0 nM) above 45.8 µM and an IC50 cell viability (ICRF193 200 nM) above 45.8 µM.

`CCCCCCCCCCCCCCCC(=O)OC[C@@H](O)[C@H]1OC[C@H](O)[C@H]1O` [Sorbitan monohexadecanoate] gave an IC50 cell viability (ICRF193 0 nM) above 45.8 µM and an IC50 cell viability (ICRF193 200 nM) above 45.8 µM.

For the compound `CC1(C)[C@H](C=C(Cl)Cl)[C@H]1C(=O)OCc1c(F)c(F)cc(F)c1F` [Transfluthrin], the IC50 cell viability is above 45.8 µM (ICRF193 0 nM) and above 45.8 µM (ICRF193 200 nM).

For the compound `Cc1ccc2c(Cl)cc(Cl)c(O)c2n1` [5,7-Dichloro-8-hydroxy-2-methylquinoline], the IC50 cell viability was above 45.8 µM (ICRF193 0 nM) and above 45.8 µM (ICRF193 200 nM).

For the compound `CCCCCCOc1ccccc1C(N)=O` [Exalamide], the IC50 cell viability is, setting by setting: (ICRF193 0 nM) above 45.8 µM; (ICRF193 200 nM) above 45.8 µM.

`O=C(O)c1ccccc1Nc1cc(Cl)ccc1C(=O)O` [Lobenzarit sodium]: the IC50 cell viability reads like this: (ICRF193 0 nM) above 45.8 µM; (ICRF193 200 nM) above 45.8 µM.

With `C=CCc1ccc(O)c(OC)c1` [Eugenol], the IC50 cell viability was above 45.8 µM (ICRF193 0 nM) and above 45.8 µM (ICRF193 200 nM).

In turn, `CCOC(=O)[C@H](CCc1ccccc1)N[C@H]1CCCN2CCC[C@@H](C(=O)O)N2C1=O` [Cilazapril] displayed an IC50 cell viability (ICRF193 0 nM) above 45.8 µM and an IC50 cell viability (ICRF193 200 nM) above 45.8 µM.

`CC(C)NCC(O)c1ccccc1Cl` (stereo not given) [Clorprenaline hydrochloride]: the IC50 cell viability (ICRF193 0 nM) is above 45.8 µM and the IC50 cell viability (ICRF193 200 nM) is above 45.8 µM.

Turning to `CC(=O)OCC1=C(C(=O)O)N2C(=O)[C@@H](NC(=O)CC#N)[C@H]2SC1` [Cefacetrile], the IC50 cell viability runs as follows: (ICRF193 0 nM) above 45.8 µM; (ICRF193 200 nM) above 45.8 µM.

`CC(C)C[C@H]1[C@@H](c2ccccc2)OC(=O)N1CCCN1CCCCCC1` [Ipenoxazone hydrochloride]: the IC50 cell viability (ICRF193 0 nM) is above 45.8 µM and the IC50 cell viability (ICRF193 200 nM) is above 45.8 µM.

Turning to `COc1cc2c(cc1OC)C1CC(=O)C(CC(C)C)CN1CC2` (stereo not given) [Tetrabenazine Mesylate], the IC50 cell viability runs as follows: (ICRF193 0 nM) above 45.8 µM; (ICRF193 200 nM) above 45.8 µM.

`COc1c(O)cc2c(c1O)[C@@H]1O[C@H](CO)[C@@H](O)[C@H](O)[C@H]1OC2=O` [Bergenin monohydrate]: the IC50 cell viability (ICRF193 0 nM) was above 45.8 µM and the IC50 cell viability (ICRF193 200 nM) is above 45.8 µM.

In the case of `CCOc1ccc2c(c1)C(C)=CC(C)(C)N2` [Ethoxyquin], the IC50 cell viability (ICRF193 0 nM) is above 45.8 µM and the IC50 cell viability (ICRF193 200 nM) is above 45.8 µM.

As for `CCCCC[C@@H](O)[C@H]1C(=O)O[C@H](C)[C@@H](O)/C=C/C=C/C=C/C=C/C=C(\C)[C@@H](O)[C@H](O)[C@H](O)C[C@H](O)C[C@H](O)C[C@H](O)C[C@H](O)C[C@@H]1O` [Pentamycin], the IC50 cell viability (ICRF193 0 nM) was above 45.8 µM and the IC50 cell viability (ICRF193 200 nM) was above 45.8 µM.

In the case of `Cc1ccc(C(C)C)cc2c(C)ccc1-2` [Guaiazulene], the IC50 cell viability is, setting by setting: (ICRF193 0 nM) above 45.8 µM; (ICRF193 200 nM) above 45.8 µM.

Consider `COc1cc2nc(N(C)CCCNC(=O)C3CCCO3)nc(N)c2cc1OC` (stereo not given) [Alfuzosin hydrochloride], for which the IC50 cell viability runs as follows: (ICRF193 0 nM) above 45.8 µM; (ICRF193 200 nM) above 45.8 µM.

In turn, `C[N+]12CCC(CC1)C(OC(=O)C(O)(c1ccccc1)c1ccccc1)C2` (stereo not given) [Clidinium bromide] registered an IC50 cell viability (ICRF193 0 nM) above 45.8 µM and an IC50 cell viability (ICRF193 200 nM) above 45.8 µM.

On to `CCN(CC)C(=O)/C(C#N)=C/c1cc(O)c(O)c([N+](=O)[O-])c1` [Entacapone], for which the IC50 cell viability is above 45.8 µM (ICRF193 0 nM) and above 45.8 µM (ICRF193 200 nM).

Compound `O[C@@H]([C@H](O)[C@H](O)CBr)[C@H](O)CBr` [Dibromomannitol] displayed an IC50 cell viability (ICRF193 0 nM) above 45.8 µM and an IC50 cell viability (ICRF193 200 nM) above 45.8 µM.

With `CCN[C@H]1CN(CCCOC)S(=O)(=O)c2sc(S(N)(=O)=O)cc21` [Brinzolamide], the IC50 cell viability by setting is: (ICRF193 0 nM) above 45.8 µM; (ICRF193 200 nM) above 45.8 µM.

Consider `CC(C)c1nc(N(C)S(C)(=O)=O)nc(-c2ccc(F)cc2)c1/C=C/[C@@H](O)C[C@@H](O)CC(=O)O` [Rosuvastatin calcium (Crestor)], for which the IC50 cell viability reads like this: (ICRF193 0 nM) above 45.8 µM; (ICRF193 200 nM) above 45.8 µM.
